Results taken from patent US20240374595A1, “SUBSTITUTED 1,1'-BIPHENYL COMPOUNDS, ANALOGUES THEREOF, AND METHODS USING SAME” (Arbutus Biopharma Corporation, priority 2018, published 2024).

What follows are molecules tested against PD-L1 (Homo sapiens (Human), UniProt Q9NZQ7) (assay: PD-L1 HTRF assay (PD-1/PD-L1 interaction)). Settings: PD-L1 His 6 nM, PD-1 Fc 6 nM; inhibitors 3-fold diluted from 20 μM.
Format: binding
Procedure: PD-L1 small molecule inhibitors were diluted by 3-fold starting from 20 μM and a final concentration of 0.001 μM and added to the well. PD-1 Fc protein was added at the final concentration of 6 nM. PD-L1 His protein, PD-L1 small molecule inhibitors, and PD1 Fc proteins were added to the well in this order, with each 5 μl volume, and were incubated for 15 minutes at room temperature. […] The plate was read using PerkinElmer Envision plate reader and data was analyzed by Prism 6 software.

Chain of PD-L1 (Q9NZQ7 19-238): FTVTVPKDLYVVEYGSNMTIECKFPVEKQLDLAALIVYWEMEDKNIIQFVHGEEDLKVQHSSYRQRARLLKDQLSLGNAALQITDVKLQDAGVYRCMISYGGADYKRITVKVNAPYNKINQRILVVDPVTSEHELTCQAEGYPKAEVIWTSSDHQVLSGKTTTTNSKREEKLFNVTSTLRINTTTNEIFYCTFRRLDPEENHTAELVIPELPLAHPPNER

Going from “5-(((1,3-dihydroxypropan-2-yl)amino)methyl)-N-(3′-(5-(((2-hydroxyethyl)amino)methyl)picolinamido)-2,2′-dimethyl-[1,1′-biphenyl]-3-yl)picolinamide [Example 36]” to `Cc1c(COc2ccc(C3=NCCN3)c(OCc3cccc(C#N)c3)c2)cccc1-c1ccccc1` [Example 1, 3-((2-(4,5-Dihydro-1H-imidazol-2-yl)-5-((2-methyl-[1,1′-biphenyl]-3-yl)methoxy)phenoxy)methyl)benzonitrile], the IC50 rises from 0.4 nM to 280 nM (700-fold). The first is the more potent here.

First: Cc1c(COc2ccc(-c3ncc[nH]3)c(OCc3cccc(C#N)c3)c2)cccc1-c1ccccc1 [Example 2, 3-[[2-(1H-Imidazol-2-yl)-5-[(2-methyl-3-phenyl-phenyl)methoxy]phenoxy]methyl] benzonitrile]
Second: Cc1c(COc2ccc(C3=NCCN3C)c(OCc3cccc(C#N)c3)c2)cccc1-c1ccccc1 [Example 3, 3-[[2-(1-Methyl-4,5-dihydroimidazol-2-yl)-5-[(2-methyl-3-phenyl-phenyl)methoxy]phenoxy]methyl]benzonitrile]
The IC50 of the first is 62-fold higher: 20000 nM for the first, 320 nM for the second. The second is the more potent here.

Compared with `Cc1c(COc2ccc(-c3nccn3C)c(OCc3cccc(C#N)c3)c2)cccc1-c1ccccc1` [Example 4, 3-[[2-(1-methylimidazol-2-yl)-5-[(2-methyl-3-phenyl-phenyl)methoxy]phenoxy]methyl]benzonitrile], `Cc1c(COc2ccc(-c3nc(CO)c[nH]3)c(OCc3cccc(C#N)c3)c2)cccc1-c1ccccc1` [Example 5, 3-[[2-[4-(Hydroxymethyl)-1H-imidazol-2-yl]-5-[(2-methyl-3-phenyl-phenyl)methoxy]phenoxy]methyl]benzonitrile] is 3-fold higher in IC50: 5400 nM for the first, 16000 nM for the second.

Compared with `Cc1c(COc2ccc(C3=NCCN3CCO)c(OCc3cccc(C#N)c3)c2)cccc1-c1ccccc1` [Example 6, 3-[[2-[1-(2-Hydroxyethyl)-4,5-dihydroimidazol-2-yl]-5-[(2-methyl-3-phenyl-phenyl)methoxy]phenoxy]methyl]benzonitrile], `Cc1c(COc2ccc(-c3nccn3CCO)c(OCc3cccc(C#N)c3)c2)cccc1-c1ccccc1` [Example 7, 3-[[2-[1-(2-Hydroxyethyl)imidazol-2-yl]-5-[(2-methyl-3-phenyl-phenyl)methoxy]phenoxy]methyl]benzonitrile] is 34-fold higher in IC50: 53 nM for the first, 1800 nM for the second.

Going from `CC(=O)NCc1c[nH]c(-c2ccc(OCc3cccc(-c4ccccc4)c3C)cc2OCc2cccc(C#N)c2)n1` [Example 8, N-[[2-[2-[(3-Cyanophenyl)methoxy]-4-[(2-methyl-3-phenyl-phenyl)methoxy]phenyl]-1H-imidazol-4-yl]methyl]acetamide] to `Cc1c(COc2ccc(C3=NCCCN3)c(OCc3cccc(C#N)c3)c2)cccc1-c1ccccc1` [Example 9, 3-[[5-[(2-Methyl-3-phenyl-phenyl)methoxy]-2-(1,4,5,6-tetrahydropyrimidin-2-yl)phenoxy]methyl]benzonitrile], the IC50 falls from 19000 nM to 150 nM (130-fold). The second is the more potent here.

Compared with `Cc1c(COc2ccc(C3=NCC(O)CN3)c(OCc3cccc(C#N)c3)c2)cccc1-c1ccccc1` (stereo not drawn) [Example 10, 3-[[2-(5-Hydroxy-1,4,5,6-tetrahydropyrimidin-2-yl)-5-[(2-methyl-3-phenyl-phenyl)methoxy]phenoxy]methyl]benzonitrile], `Cc1c(COc2ccc(C3=NCCCN3C)c(OCc3cccc(C#N)c3)c2)cccc1-c1ccccc1` [Example 11, 3-[[2-(1-Methyl-5,6-dihydro-4H-pyrimidin-2-yl)-5-[(2-methyl-3-phenyl-phenyl)methoxy]phenoxy]methyl]benzonitrile] is 3-fold higher in IC50: 100 nM for the first, 300 nM for the second.

First: Cc1c(COc2ccc(C3=NCCCN3CCO)c(OCc3cccc(C#N)c3)c2)cccc1-c1ccccc1 [Example 12, 3-[[2-[1-(2-Hydroxyethyl)-5,6-dihydro-4H-pyrimidin-2-yl]-5-[(2-methyl-3-phenyl-phenyl)methoxy]phenoxy]methyl]benzonitrile]
Second: Cc1c(COc2ccc(/C(=N/CCO)NCCO)c(OCc3cccc(C#N)c3)c2)cccc1-c1ccccc1 [Example 13, 2-[(3-Cyanophenyl)methoxy]-N,N′-bis(2-hydroxyethyl)-4-[(2-methyl-3-phenyl-phenyl)methoxy]benzamidine]
The IC50 of the first is 1.5-fold lower: 110 nM for the first, 170 nM for the second. The first is the more potent here.

First: CC(=O)NCC/N=C(\NCCNC(C)=O)c1ccc(OCc2cccc(-c3ccccc3)c2C)cc1OCc1cccc(C#N)c1 [Example 14, N-[2-[[(Z)—N-(2-Acetamidoethyl)-C-[2-[(3-cyanophenyl)methoxy]-4-[(2-methyl-3-phenyl-phenyl)methoxy]phenyl]carbonimidoyl]amino]ethyl]acetamide]
Second: Cc1c(COc2ccc(C3=NCC(O)CN3)c(OCc3cncc(C#N)c3)c2)cccc1-c1ccccc1 (stereo not drawn) [Example 15, 5-((2-(5-Hydroxy-1,4,5,6-tetrahydropyrimidin-2-yl)-5-((2-methyl-[1,1′-biphenyl]-3-yl)methoxy)phenoxy)methyl)nicotinonitrile]
The IC50 of the first is 22-fold higher: 330 nM for the first, 15 nM for the second.

`Cc1c(COc2cc(OCc3cncc(C#N)c3)c(C3=NCC(O)CN3)cc2Cl)cccc1-c1cccc(OCCCN2CCC(O)CC2)c1C` (stereo not drawn) [Example 16, 5-[[4-Chloro-5-[[3-[3-[3-(4-hydroxy-1-piperidyl)propoxy]-2-methyl-phenyl]-2-methyl-phenyl]methoxy]-2-(5-hydroxy-1,4,5,6-tetrahydropyrimidin-2-yl)phenoxy]methyl]pyridine-3-carbonitrile] and `Cc1c(COc2cc(OCc3cncc(C#N)c3)c(C3=NCCCN3CCO)cc2Cl)cccc1-c1cccc(OCCCN2CCC(O)CC2)c1C` [Example 17, 5-[[4-Chloro-2-[1-(2-hydroxyethyl)-5,6-dihydro-4H-pyrimidin-2-yl]-5-[[3-[3-[3-(4-hydroxy-1-piperidyl)propoxy]-2-methyl-phenyl]-2-methyl-phenyl]methoxy]phenoxy]methyl] pyridine-3-carbonitrile] are within 1.5-fold of each other in IC50: 1.2 nM for the first, 1.5 nM for the second.

`Cc1c(COc2cc(OCc3cncc(C#N)c3)c(C3=NC(C(=O)O)CCN3)cc2Cl)cccc1-c1cccc(OCCCN2CCC(O)CC2)c1C` (stereo not drawn) [Example 18, 2-[5-Chloro-2-[(5-cyano-3-pyridyl)methoxy]-4-[[3-[3-[3-(4-hydroxy-1-piperidyl)propoxy]-2-methyl-phenyl]-2-methyl-phenyl]methoxy]phenyl]-1,4,5,6-tetrahydropyrimidine-4-carboxylic acid] and `Cc1c(COc2cc(OCc3cncc(C#N)c3)c(C3=NC(C(=O)O)CN3)cc2Cl)cccc1-c1cccc(OCCCN2CCC(O)CC2)c1C` (stereo not drawn) [Example 19, 2-[5-Chloro-2-[(5-cyano-3-pyridyl)methoxy]-4-[[3-[3-[3-(4-hydroxy-1-piperidyl)propoxy]-2-methyl-phenyl]-2-methyl-phenyl]methoxy]phenyl]-4,5-dihydro-1H-imidazole-4-carboxylic acid] are the same in IC50: 1.2 nM for the first, 1.2 nM for the second.

First: COC(=O)c1c[nH]c(-c2cc(Cl)c(OCc3cccc(-c4cccc(OCCCN5CCC(O)CC5)c4C)c3C)cc2OCc2cncc(C#N)c2)n1 [Example 20, Methyl 2-(5-chloro-2-((5-cyanopyridin-3-yl)methoxy)-4-((3′-(3-(4-hydroxypiperidin-1-yl)propoxy)-2,2′-dimethyl-[1,1′-biphenyl]-3-yl)methoxy)phenyl)-1H-imidazole-5-carboxylate]
Second: Cc1c(COc2cc(OCc3cncc(C#N)c3)c(C3=NCC(OCC(=O)O)CN3)cc2Cl)cccc1-c1cccc(OCCCN2CCC(O)CC2)c1C (stereo not drawn) [Example 21, 2-[[2-[5-Chloro-2-[(5-cyano-3-pyridyl)methoxy]-4-[[3-[3-[3-(4-hydroxy-1-piperidyl)propoxy]-2-methyl-phenyl]-2-methyl-phenyl]methoxy]phenyl]-1,4,5,6-tetrahydropyrimidin-5-yl]oxy] acetic acid]
The IC50 of the first is 12-fold higher: 10 nM for the first, 0.8 nM for the second. The second is the more potent here.

Going from `Cc1c(COc2cc(OCc3cncc(C#N)c3)c(C3=NCCN3CCO)cc2Cl)cccc1-c1cccc(OCCCN2CCC(O)CC2)c1C` [Example 22, 5-[[4-Chloro-2-[1-(2-hydroxyethyl)-4,5-dihydroimidazol-2-yl]-5-[[3-[3-[3-(4-hydroxy-1-piperidyl)propoxy]-2-methyl-phenyl]-2-methyl-phenyl]methoxy]phenoxy]methyl]pyridine-3-carbonitrile] to `Cc1c(COc2cc(OCc3cncc(C#N)c3)c(C3=NCC(O)CN3CCO)cc2Cl)cccc1-c1cccc(OCCCN2CCC(O)CC2)c1C` (stereo not drawn) [Example 23], the IC50 rises from 3.8 nM to 14 nM (3.7-fold). The first is the more potent here.

Going from `Cc1c(COc2cc(OCc3cncc(C#N)c3)c(C3=NCCN3CC(=O)O)cc2Cl)cccc1-c1cccc(OCCCN2CCC(O)CC2)c1C` [Example 24, 2-[2-[5-Chloro-2-[(5-cyano-3-pyridyl)methoxy]-4-[[3-[3-[3-(4-hydroxy-1-piperidyl)propoxy]-2-methyl-phenyl]-2-methyl-phenyl]methoxy]phenyl]-4,5-dihydroimidazol-1-yl]acetic acid] to `Cc1c(COc2cc(OCc3cncc(C#N)c3)c(C3=NCC(O)CN3)cc2Cl)cccc1-c1cccc(OCC(CN2CCC(O)CC2)c2ccccc2)c1C` (stereo not drawn) [Example 25, 5-[[4-chloro-5-[[3-[3-[3-(4-hydroxy-1-piperidyl)-2-phenyl-propoxy]-2-methyl-phenyl]-2-methyl-phenyl]methoxy]-2-(5-hydroxy-1,4,5,6-tetrahydropyrimidin-2-yl)phenoxy]methyl]pyridine-3-carbonitrile], the IC50 rises from 1.1 nM to 30 nM (27-fold). The first is the more potent here.

`Cc1c(COc2cc(OCc3cncc(C#N)c3)c(C3=NCC(O)CN3)cc2Cl)cccc1-c1cccc(OCC(CO)c2ccccc2)c1C` (stereo not drawn) [Example 26, 5-[[4-Chloro-5-[[3-[3-(3-hydroxy-2-phenyl-propoxy)-2-methyl-phenyl]-2-methyl-phenyl]methoxy]-2-(5-hydroxy-1,4,5,6-tetrahydropyrimidin-2-yl)phenoxy]methyl]pyridine-3-carbonitrile] showed an IC50 of 7.4 nM.
